By logP is commonly meant a log measure of how a compound divides between an organic and an aqueous phase. The pKa is the negative logarithm of the acid dissociation constant. Usually IC50 stands for the concentration at which inhibition is half-maximal. As a reminder, the Papp is the rate of passage across a membrane or cell layer, normalised by area and donor concentration.

The source of these data is PMC6152224 (Molecules : A Journal of Synthetic Chemistry and Natural …, 2017).

Structures are written as SMILES. Structures can show the parent of a compound that is named as a salt. Where two headings read alike, the source gives them in different places.

A short description of data set [1]: Experimentally determined physicochemical values with Sirius T3 device.
In the next data set the test system is SH-SY5Y cell line. The experiment in a line: cells. Format: cell-based, human. To be noted: read-out: IC50 ± SEM SH-SY5Y.
The test system of another data set is ACHN cell line. The experiment in a line: cells. Particulars: read-out: IC50 ± SEM ACHN. It is filed as cell-based, human.
A short description of another data set: in vitro. To be noted: PAMPA, pH 7.4.
In a further data set the target is T1, hAChE (Homo sapiens, UniProt P22303).
T1 construct: purchased Sigma-Aldrich (Prague, Czech Republic)
T1 sequence (P22303 32-614): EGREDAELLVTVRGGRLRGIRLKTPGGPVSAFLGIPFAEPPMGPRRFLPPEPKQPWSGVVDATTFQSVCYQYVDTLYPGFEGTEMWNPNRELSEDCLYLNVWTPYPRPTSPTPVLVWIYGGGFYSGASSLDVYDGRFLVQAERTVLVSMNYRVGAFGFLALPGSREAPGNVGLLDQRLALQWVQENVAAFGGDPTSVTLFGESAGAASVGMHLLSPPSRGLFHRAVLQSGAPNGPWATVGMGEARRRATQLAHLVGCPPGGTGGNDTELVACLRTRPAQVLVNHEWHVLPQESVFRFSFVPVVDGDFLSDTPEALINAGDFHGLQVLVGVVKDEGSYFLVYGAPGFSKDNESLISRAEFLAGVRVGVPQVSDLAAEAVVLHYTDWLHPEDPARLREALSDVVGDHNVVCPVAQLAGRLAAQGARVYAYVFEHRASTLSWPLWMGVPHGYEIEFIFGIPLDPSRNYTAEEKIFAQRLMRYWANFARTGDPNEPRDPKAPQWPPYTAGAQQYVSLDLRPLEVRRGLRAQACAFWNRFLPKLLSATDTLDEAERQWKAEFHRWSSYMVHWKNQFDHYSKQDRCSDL
The experiment in a line: Kinetic study of AChE inhibition (Lineweaver-Burk, nonlinear regression). It is filed as biochemical.

The next data set deals with HepG2 cell line. The experiment in a line: cells. Format: cell-based, human. Particulars: read-out: IC50 ± SEM HepG2.
In data set [2] the target is T2, human plasmatic BChE (hBChE) (Homo sapiens, UniProt P06276).
T2 construct: human plasmatic BChE (hBChE, E.C. 3.1.1.8, purchased from Sigma-Aldrich); purchased Sigma-Aldrich (Prague, Czech Republic); host or cells: human plasma
T2 sequence (P06276 29-602): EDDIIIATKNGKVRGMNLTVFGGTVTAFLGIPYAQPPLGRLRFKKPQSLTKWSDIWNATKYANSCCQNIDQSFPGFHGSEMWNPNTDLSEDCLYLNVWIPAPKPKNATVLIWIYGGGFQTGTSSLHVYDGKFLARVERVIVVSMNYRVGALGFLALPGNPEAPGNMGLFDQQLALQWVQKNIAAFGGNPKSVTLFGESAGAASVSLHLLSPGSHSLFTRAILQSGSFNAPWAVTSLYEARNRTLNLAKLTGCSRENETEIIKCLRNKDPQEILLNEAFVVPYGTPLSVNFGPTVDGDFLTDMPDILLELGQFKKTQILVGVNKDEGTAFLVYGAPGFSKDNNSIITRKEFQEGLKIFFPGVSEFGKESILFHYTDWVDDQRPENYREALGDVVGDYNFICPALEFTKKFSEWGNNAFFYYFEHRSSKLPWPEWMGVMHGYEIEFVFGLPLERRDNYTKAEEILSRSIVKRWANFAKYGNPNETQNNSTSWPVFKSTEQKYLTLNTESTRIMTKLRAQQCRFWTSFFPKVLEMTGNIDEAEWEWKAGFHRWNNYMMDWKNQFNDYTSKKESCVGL
The experiment in a line: In vitro anti-cholinesterase assay (modified Ellman's method), hBChE. It is filed as biochemical. To be noted: mean of at least three experiments; read-out: IC50 ± SEM hBChE. In general terms: DTNB colorimetry detects thiols as they appear.

For data set [3] the following is noted: PAMPA; taken from ref 52, 53; cited from earlier work.
Another data set deals with hBChE. Particulars: literature value; cited from earlier work.
The conditions of data set [4]: PAMPA, pH 7.4. Background: In PAMPA a lipid-coated filter parts donor from acceptor wells.
The test system of a further data set is AChE. Details: method as in PMID 23480140. Particulars: versus THA and (−)-huperzine A; cited from earlier work.
The test system of data set [5] is 3-nitropropionic acid (3-NP) intoxication. Particulars: 3-NP-induced assay, HupY pretreatment; cited from earlier work.
For data set [6], the system named is HepG2, ACHN and SH-SY5Y cell lines. The experiment in a line: cells. Particulars: Homo sapiens, 24 h, read-out: IC50 values for all the tested cell lines.
[7] abbreviates: MTT, cytotoxic profile assessed after 24 h.

Consider `COc1ccc2nc3c(c(N)c2c1)C1CC(C)=CC(C3)C1` (racemic) [(±)-1·HCl, rac-6-Methoxy-15-methyl-10-azatetracyclo[11.3.1.0^2,11.0^4,9]heptadeca-2(11),3,5,7,9,14-hexaen-3-amine hydrochloride], for which the logD in data set [1] (pH 7.4, read-out: logD7.4 (experimental)) is 1.73. Further, the logP in data set [1] (read-out: logP (experimental)) came to 3.58. Besides, in data set [1] (read-out: pKa (experimental)), the pKa was determined as 9.54. For the same compound, the IC50 in the data set with SH-SY5Y cell line (Homo sapiens, SH-SY5Y, 24 h) was 17.84 ± 0.09 µM; in the data set with ACHN cell line (Homo sapiens, ACHN, 24 h), 32.2 ± 0.72 µM; in the data set on HepG2 cell line (Homo sapiens, HepG2, 24 h), 14.91 ± 0.11 µM. This compound also came in with a Papp at 100 µM in the data set “in vitro” of 7.64 ± 0.22 ×10⁻⁶ cm/s. Moreover, the “Ki'” value on hAChE (enzyme-substrate complex, inhibitor 1.00, 10.0 and 100 µM) was 3.67 ± 0.42 µM. Besides, the type of inhibition entry on hAChE (nonlinear regression, sum-of-squares F-test, p < 0.05) is “mixed type of inhibition”.

On to `CC1=CC2Cc3nc4cc(Cl)ccc4c(N)c3C(C1)C2` (racemic) [(±)-HupY·HCl, rac-7-Chloro-15-methyl-10-azatetracyclo[11.3.1.0^2,11.0^4,9]heptadeca-2(11),3,5,7,9,14-hexaen-3-amine hydrochloride], for which the concentration for half-maximal inhibition (IC50) with SH-SY5Y cell line (Homo sapiens, SH-SY5Y, 24 h) came to 17.5 ± 0.44 µM; with ACHN cell line (Homo sapiens, ACHN, 24 h), 24.6 ± 0.32 µM; in data set [2], 0.358 ± 0.025 µM; in the data set on HepG2 cell line (Homo sapiens, HepG2, 24 h), 15.9 ± 1.17 µM. The same compound displayed a Papp in “in vitro” of 5.89 ± 0.36 ×10⁻⁶ cm/s.

As for `Nc1c2c(nc3cc(Cl)ccc13)CCCC2` [6-chlorotacrine], the IC50 was 50.4 ± 1.28 µM in the data set on SH-SY5Y cell line (setting [7]), 55.1 ± 1.76 µM with ACHN cell line (setting [7]) and 43.2 ± 1.17 µM in the data set on HepG2 cell line. Also, the “Pe ± SEM” value in data set [3] is recorded as 5.00 ± 0.45 ^c 10^−6 cm·s^−1.

`CC1=C[C@H]2Cc3nc4cc(Cl)ccc4c(N)c3[C@@H](C1)C2` [(+)-HupY]: the IC50 in the data set on hBChE was 0.153 µM.

Consider `CC1=C[C@@H]2Cc3nc4cc(Cl)ccc4c(N)c3[C@H](C1)C2` [(−)-HupY], for which the IC50 in the data set with hBChE was 0.247 µM.

In the case of `CO/N=C(\C(=O)N[C@@H]1C(=O)N2C(C(=O)O)=C(COC(N)=O)CS[C@H]12)c1ccco1` [Cefuroxim, cefuroxime], the “Pe ± SEM” value in data set [4] is 2.70 ± 0.1 10^−6 cm·s^−1.

For `COc1ccc2nc3c(c(N)c2c1)CCCC3` [Compound 7-MEOTA, 7-methoxytacrine], the 50% inhibitory concentration (IC50) in the data set on SH-SY5Y cell line (Homo sapiens, SH-SY5Y, 24 h) was found to be 26.8 ± 1.04 µM; in the data set with ACHN cell line (Homo sapiens, ACHN, 24 h), 49.3 ± 2.69 µM; in the data set on HepG2 cell line (Homo sapiens, HepG2, 24 h), 44.4 ± 3.35 µM. The compound further displayed a Papp in the data set “in vitro” of 6.5 ± 1.85 ×10⁻⁶ cm/s.

As for `CCC1=CC2Cc3nc4cc(Cl)ccc4c(N)c3[C@@H](C1)C2` [HupX], the “AChE inhibition potency relative to the parent structures” value in the data set with AChE is recorded as “more than 100 times”.

Consider `CC1=CC2Cc3nc4cc(Cl)ccc4c(N)c3C(C1)C2` (centres unmarked) [HupY], for which the “survival of pretreated mice” value in [5] was “increased the survival”.

As for `CN1C(C(=O)Nc2ccccn2)=C(O)c2ccccc2S1(=O)=O` [Piroxicam, piroxicam], the “Pe ± SEM” value in data set [4] was 2.20 ± 0.15 10^−6 cm·s^−1.

Take `Nc1c2c(nc3ccccc13)CCCC2` [THA, 1,2,3,4-tetrahydro-9-aminoacridine]: the IC50 in data set [6] is 120 to 168 µM; with SH-SY5Y cell line (Homo sapiens, SH-SY5Y, 24 h), 121 ± 1.97 µM; with ACHN cell line (Homo sapiens, ACHN, 24 h), 155.2 ± 0.67 µM. Moreover, the “Pe ± SEM” value in data set [3] is on record as 5.30 ± 0.20 ^c 10^−6 cm·s^−1.
